Assay results: the NIST ThermoML archive (doi:10.1016/j.jct.2015.02.011)

Experiment: refractive index (Na D-line) (dimensionless); xn = mol fraction of the nth substance listed
Conditions: 100.7 kPa, Liquid, Standard Abbe refractometry

CCCCn1cc[n+](C)c1.F[P-](F)(F)(F)(F)F [1-butyl-3-methylimidazolium hexafluorophosphate] + C1CCOC1
refractive index
Conditions	x1 = 0.0871	x1 = 0.1801	x1 = 0.2893	x1 = 0.3939	x1 = 0.4994	x1 = 0.5709	x1 = 0.7163	x1 = 0.8069	x1 = 0.9012	x1 = 1
293.15 K	1.41126	1.41369	1.41462	1.41441	1.41373	1.41332	1.41236	1.41205	1.41131	1.41068
298.15 K	1.40906	1.41157	1.41279	1.41273	1.41208	1.4117	1.41089	1.41059	1.41014	1.40943
303.15 K	1.40701	1.40957	1.41105	1.41113	1.41065	1.41025	1.40964	1.40935	1.40895	1.40818
308.15 K	1.40475	1.40747	1.40915	1.40938	1.4092	1.40877	1.40818	1.40793	1.40778	1.40693
313.15 K	1.40262	1.40554	1.40754	1.40784	1.40779	1.40748	1.40693	1.40681	1.40666	1.40567
318.15 K	1.40012	1.40345	1.40558	1.40611	1.40619	1.40595	1.40552	1.40541	1.40525	1.40443
323.15 K	1.39781	1.40139	1.40377	1.40455	1.40451	1.40452	1.40428	1.40425	1.40393	1.40312

CCCCCCn1cc[n+](C)c1.F[P-](F)(F)(F)(F)F [1-hexyl-3-methylimidazolium hexafluorophosphate] + C1CCOC1
refractive index
Conditions	x1 = 0.1036	x1 = 0.2002	x1 = 0.2868	x1 = 0.4134	x1 = 0.5222	x1 = 0.6239	x1 = 0.6951	x1 = 0.7978	x1 = 0.8953	x1 = 1
293.15 K	1.416	1.41971	1.42081	1.42058	1.41962	1.41895	1.41874	1.41868	1.41858	1.41958
298.15 K	1.41392	1.41772	1.41878	1.41884	1.41828	1.41755	1.41759	1.41752	1.41756	1.41832
303.15 K	1.41184	1.41573	1.41707	1.4171	1.41694	1.41615	1.41644	1.41636	1.41654	1.41692
308.15 K	1.40966	1.41374	1.41536	1.41556	1.41536	1.41475	1.41509	1.41512	1.41552	1.41564
313.15 K	1.40748	1.41175	1.41365	1.41402	1.41378	1.41335	1.41374	1.41388	1.4145	1.41422
318.15 K	1.4053	1.40976	1.41194	1.41248	1.4122	1.41195	1.41239	1.41264	1.41348	1.41306
323.15 K	1.40312	1.40777	1.41023	1.41094	1.41062	1.41055	1.41104	1.4114	1.41246	1.41175

CCCCCCCC[n+]1ccn(C)c1.F[P-](F)(F)(F)(F)F [1-octyl-3-methylimidazolium hexafluorophosphate] + C1CCOC1
refractive index
Conditions	x1 = 0.0767	x1 = 0.1791	x1 = 0.2783	x1 = 0.3996	x1 = 0.5198	x1 = 0.612	x1 = 0.6957	x1 = 0.7754	x1 = 0.8991	x1 = 1
293.15 K	1.41505	1.4205	1.42326	1.42412	1.42414	1.42411	1.42421	1.42432	1.42436	1.42441
298.15 K	1.41278	1.41848	1.42126	1.42242	1.42258	1.42272	1.42284	1.42306	1.42329	1.42312
303.15 K	1.41061	1.41646	1.41956	1.42076	1.42102	1.42123	1.42161	1.42189	1.42202	1.42171
308.15 K	1.40824	1.41452	1.41786	1.4191	1.41946	1.41974	1.42018	1.42042	1.42085	1.42029
313.15 K	1.40587	1.41284	1.41616	1.41744	1.4179	1.41825	1.41865	1.41915	1.41958	1.41888
318.15 K	1.4035	1.41116	1.41446	1.41578	1.41634	1.41676	1.41712	1.41788	1.41831	1.4175
323.15 K	1.40113	1.40948	1.41276	1.41412	1.41478	1.41527	1.41559	1.41661	1.41704	1.41601
